Experiments:
[1] = tested on: HCT116 cells; experiment: Annexin-V apoptosis assay, HCT116; type: cell-based, human; details: HCT116, 4.5 and 9.0 μM, 48 h, flow cytometry PI/Annexin-V
Protocol: The analysis of apoptotic cell death was performed essentially as described by Ramos et al.. Briefly, 1.5 × 10^5 HCT116 cells/well were seeded in 6-well plates, allowed to adhere overnight, and then treated with 4.5 and 9.0 μM of compound 1a. After 48 h of treatment, cells were stained using the Annexin V-FITC Apoptosis Detection Kit I from BD Biosciences (Enzifarma, Porto, Portugal), according to the manufacturer’s instructions. The AccuriTM C6 flow cytometer and the BD Accuri C6 software (BD Biosciences) were used.

[2] = tested on: HFF-1 cells; experiment: SRB assay, normal foreskin fibroblasts HFF-1; type: cell-based; details: 48 h of treatment, normal human foreskin fibroblasts, mean ± SEM
Description: (§1) Human colorectal adenocarcinoma HCT116 cell lines expressing p53 and its p53-null isogenic derivative (HCT116 p53^−/−) were provided by B. Vogelstein (The Johns Hopkins Kimmel Cancer Center, Baltimore, MD, USA). Human colorectal adenocarcinoma SW837, HT29, pancreatic carcinoma PANC-1, breast adenocarcinoma MCF-7, hepatocarcinoma HEPG2, melanoma A375, normal human foreskin fibroblasts HFF-1, and normal human colon CCD-18Co cell lines were purchased from ATCC (Rockville, MD, USA). The cancer cell lines were routinely cultured with RPMI-1640 medium from Biowest (HCT116, HCT116 p53^−/−, SW837, HT29, A375, MCF-7, HEPG-2, and […]) or DMEM with 5% glucose (HFF-1) and supplemented with 10% fetal bovine serum from Gibco (Alfagene, Lisboa, Portugal). All cells were maintained in a humidified incubator at 37 °C and 5% CO2.
(§2) Human cell lines were seeded in 96-well plates at a density of 5.0 × 10^3 (HCT116 p53 ^−/−, HCT116 wt, HT29, SW837, CCD-18Co, HFF-1, and MCF-7 cell lines) or 4.5 × 10^3 (A375, HEPG2 and PANC-1 cell lines) cells per well, for 24 h. Cells were treated with the appropriate compound, with serial dilutions ranging from 0.2 to 50 µM, for 48 h. Following the incubation, the effects on cell proliferation were evaluated through the SRB assay as stated by Ramos et al.. The IC50 values were determined using the software GraphPad Prism version 9.0.

[3] = tested on: A375 cells; experiment: SRB antiproliferative assay, A375; type: cell-based, human; details: 48 h of treatment, mean ± SEM
Description: as §1, §2

[4] = tested on: HT29 cells; experiment: SRB antiproliferative assay, HT29; type: cell-based; details: Homo sapiens, HT-29, 48 h of treatment, mean ± SEM
Description: as §1, §2

[5] = tested on: SW837 cells; experiment: SRB antiproliferative assay, SW837; type: cell-based; details: Homo sapiens, 48 h of treatment, mean ± SEM
Description: as §1, §2

[6] = tested on: CCD-18Co cells; experiment: SRB cytotoxicity assay, normal colon CCD-18Co; type: cell-based; details: 48 h of treatment, normal human colon cell line, mean ± SEM
Description: as §1, §2

[7] = tested on: breast adenocarcinoma (MCF-7); design: method as in PMID 31247374; details: cited from earlier work
[8] = tested on: HCT116 p53−/− cells; experiment: SRB antiproliferative assay, HCT116 p53−/−; type: cell-based; details: Homo sapiens, HCT-116, 48 h of treatment, p53 knockout, mean ± SEM
Description: as §1, §2

[9] = tested on: HEPG2 cells; experiment: SRB antiproliferative assay, HEPG2; type: cell-based, human; details: 48 h of treatment, mean ± SEM
Description: as §1, §2

[10] = tested on: MCF-7 cells; experiment: SRB antiproliferative assay, MCF-7; type: cell-based, human; details: 48 h of treatment, mean ± SEM
Description: as §1, §2

[11] = tested on: PANC-1 cells; experiment: SRB antiproliferative assay, PANC-1; type: cell-based, human; details: 48 h of treatment, mean ± SEM
Description: as §1, §2

[12] = tested on: HCT116 cells; experiment: SRB antiproliferative assay, HCT116 (wt p53); type: cell-based; details: Homo sapiens, HCT-116, 48 h of treatment, mean ± SEM
Description: as §1, §2

[13] = tested on: leukemia (K-562); design: method as in PMID 31247374; details: cited from earlier work
[14] = tested on: renal adenocarcinoma (786-0); design: method as in PMID 31247374; details: cited from earlier work
[15] = tested on: ovarian carcinoma (OVCAR-3); design: method as in PMID 31247374; details: cited from earlier work

| Compound | IC50 [4] [µM] | IC50 [5] [µM] | IC50 [8] [µM] | IC50 [12] [µM] | melting point [°C] | IC50 [6] [µM] | further results |
| --- | --- | --- | --- | --- | --- | --- | --- |
| c1ccc(Cn2nnnc2-c2cc3c([nH]c4ccccc43)c(-c3ccccc3)n2)cc1 [1a] | 9 ± 0.55 | 44 ± 0.82 | 4.6 ± 0.43 | 4.5 ± 0.05 | – | 26 ± 0.82 | Apoptotic cell death (Annexin-positive cells) [1]: associated with apoptotic cell death; IC50 [2]: 29 ± 1.5 µM; IC50 ([3]; listed as C00001): 5.6 ± 0.2 µM; IC50 ([3]; Homo sapiens, A-375, 48 h): < 8 µM; IC50 [7]: 4.4 µM; IC50 ([9]; listed as C00001): 7.5 ± 1.27 µM; IC50 ([9]; Homo sapiens, HepG2, 48 h): < 8 µM; IC50 ([10]; listed as C00001): 7.7 ± 0.7 µM; IC50 ([10]; Homo sapiens, MCF7, 48 h): < 8 µM; IC50 ([11]; listed as C00001): 4 ± 0.4 µM; IC50 ([11]; Homo sapiens, PANC-1, 48 h): < 8 µM |
| COc1ccc(-c2nc(-c3nnnn3Cc3ccccc3)cc3c2[nH]c2ccccc23)cc1 [1b] | 5.9 ± 1.19 | 25 ± 1.63 | 4.2 ± 0.31 | 4.3 ± 0.08 | – | 3.4 ± 0.29 | – |
| Fc1ccc(-c2nc(-c3nnnn3Cc3ccccc3)cc3c2[nH]c2ccccc23)cc1 [1c] | 9.6 ± 1.18 | 29 ± 3.74 | 3.3 ± 0.73 | 3.4 ± 0.16 | – | 7.5 ± 0.16 | IC50 [13]: < 1000 nM; IC50 [7]: < 1 µM; IC50 [14]: < 1000 nM; IC50 [15]: < 1000 nM |
| Fc1ccc(-c2nc(-c3nnn[nH]3)cc3c2[nH]c2ccccc23)cc1 [1d] | – | – | – | – | – | – | IC50 [15]: 270 nM |
| COc1cc([C@@H]2c3cc4c(cc3[C@@H](O[C@@H]3O[C@@H]5CO[C@@H](C)O[C@H]5[C@H](O)[C@H]3O)[C@H]3COC(=O)[C@H]23)OCO4)cc(OC)c1O [Etoposide, reference compound] | 0.7 ± 0.1 | 0.9 ± 0.07 | 0.9 ± 0.07 | 0.6 ± 0.05 | – | 0.5 ± 0.07 | IC50 [2]: 1.1 ± 0.01 µM; IC50 ([3]; Homo sapiens, A-375, 48 h): 0.9 ± 0.07 µM; IC50 ([9]; Homo sapiens, HepG2, 48 h): 1.7 ± 0.2 µM; IC50 ([10]; Homo sapiens, MCF7, 48 h): 2.1 ± 0.03 µM; IC50 ([11]; Homo sapiens, PANC-1, 48 h): 3.1 ± 0.05 µM |

Second part, led by results:

| IC50 [4] [µM] | IC50 [5] [µM] | IC50 [8] [µM] | IC50 [12] [µM] | melting point [°C] | Compound | IC50 [6] [µM] | further results |
| --- | --- | --- | --- | --- | --- | --- | --- |
| > 50 | > 50 | 43 ± 0.82 | 39 ± 2.16 | 207.5 to 207.9 | Clc1ccc(-n2cc(-c3cc4c([nH]c5ccccc54)c(-c4ccccc4)n3)nn2)cc1 [13a, 3-(1-(p-Chlorophenyl)-1H-1,2,3-triazol-4-yl)-1-phenyl-β-carboline] | > 50 | – |
| > 50 | > 50 | > 50 | > 50 | 237.3 to 238.1 | Fc1ccc(-c2nc(-c3cn(-c4ccc(Cl)cc4)nn3)cc3c2[nH]c2ccccc23)cc1 [13b, 3-(1-(p-Chlorophenyl)-1H-1,2,3-triazol-4-yl)-1-(p-fluorophenyl)-β-carboline] | > 50 | – |
| > 50 | > 50 | > 50 | 32 ± 2.45 | 219.7 to 221.3 | COc1ccc(-c2nc(-c3cn(-c4ccc(Cl)cc4)nn3)cc3c2[nH]c2ccccc23)cc1 [13c, 3-(1-(p-Chlorophenyl)-1H-1,2,3-triazol-4-yl)-1-(p-methoxyphenyl)-β-carboline] | > 50 | – |
| > 50 | > 50 | > 50 | > 50 | 244.2 to 245.6 | CN(C)c1ccc(-c2nc(-c3cn(-c4ccc(Cl)cc4)nn3)cc3c2[nH]c2ccccc23)cc1 [13d, 3-(1-(p-Chlorophenyl)-1H-1,2,3-triazol-4-yl)-1-(p-dimethylaminophenyl)-β-carboline] | > 50 | – |
| > 50 | > 50 | > 50 | > 50 | 237.3 to 239.1 | O=[N+]([O-])c1cccc(-c2nc(-c3cn(-c4ccc(Cl)cc4)nn3)cc3c2[nH]c2ccccc23)c1 [13e, 3-(1-(p-Chlorophenyl)-1H-1,2,3-triazol-4-yl)-1-(m-nitrophenyl)-β-carboline] | > 50 | – |
| > 50 | > 50 | > 50 | > 50 | 219.7 to 221.3 | Clc1ccc(-n2cc(-c3cc4c([nH]c5ccccc54)c(-c4ccccc4Cl)n3)nn2)cc1 [13f, 3-(1-(p-Chlorophenyl)-1H-1,2,3-triazol-4-yl)-1-(o-chlorophenyl)-β-carboline] | > 50 | – |
| – | – | > 50 | > 50 | – | COC(=O)c1cc2c([nH]c3ccccc32)c(-c2ccccc2)n1 [14a] | – | – |
| – | – | > 50 | > 50 | – | COC(=O)c1cc2c([nH]c3ccccc32)c(-c2ccc(OC)cc2)n1 [14b] | – | – |
| – | – | 18 ± 0.47 | 15 ± 1.41 | – | COC(=O)c1cc2c([nH]c3ccccc32)c(-c2ccc(N(C)C)cc2)n1 [14c] | – | – |
| – | – | > 50 | > 50 | – | COC(=O)c1cc2c([nH]c3ccccc32)c(-c2cccc([N+](=O)[O-])c2)n1 [14d] | – | – |
| – | – | > 50 | > 50 | – | COC(=O)c1cc2c([nH]c3ccccc32)c(-c2ccccc2Cl)n1 [14e] | – | – |

Source: paper PMC9785278, “3-(1,2,3-Triazol-4-yl)-β-Carbolines and 3-(1H-Tetrazol-5-yl)-β-Carbolines: Synthesis and Evaluation as Anticancer Agents” (Pharmaceuticals, 2022)
